In article PMC10878790 (The Journal of Biological Chemistry, 2024):
Like-named read-outs stand apart in the source and are kept apart here.

Legend:
in vitro [1] = details: plasma
Procedure: CD1 mouse plasma isolated using acidified citrate dextrose was purchased from BioIVT. Each peptide's dimethyl sulfoxide stock was then mixed into the plasma, resulting in a 2 μM final concentration. An aliquot was immediately collected for a zero time point and quenched with an equal volume of acetonitrile containing 0.2% formic acid and 200 ng/ml tolbutamide IS. […] Samples were withdrawn at specific intervals and processed similarly to the zero time point. The supernatant obtained after vortexing and centrifugation was subjected to LC-MS/MS analysis as previously detailed. A control incubation was performed using 0.9% NaCl (saline).

in vitro [2] = details: microsomes
Procedure: An NADPH-regenerating system (1.7 mg/ml NADP, 7.8 mg/ml glucose-6-phosphate, 6 U/ml glucose-6-phosphate dehydrogenase in 2% w/v NaHCO3/10 mm MgCl2) was added for analysis of Phase I metabolism after heating both the regenerating solution and the sample tubes to 37 °C for 5 min in a 37 °C shaking water bath. The incubation was continued and at varying time points after addition of phase I cofactors, the reaction was stopped by the addition of 0.5 ml of acetonitrile containing IS and formic acid such that the final concentration of IS was 100 ng/ml and acid was 0.1%. Time 0 samples were stopped with the acetonitrile solution while still on ice prior to addition of the NADPH regenerating system and compound, which were subsequently added. The samples were incubated for 10 min at room temperature and then spun at 16,100g for 5 min in a microcentrifuge at 4 °C. The supernatant was analyzed by LC-MS/MS. The method described by McNaney et al. was used with modification for determination of metabolic stability half-life by substrate depletion ([59]). A “% remaining” value was used to assess the metabolic stability of a compound over time. The LC-MS/MS peak area of the incubated sample at each time point was divided by the LC-MS/MS peak area of the time 0 (T0) sample and multiplied by 100. The natural Log (LN) of the % remaining of compound was then plotted versus time (in min) and a linear regression curve was plotted going through y-intercept at LN (100).

MDA-MB-231 cells [3] = assay: Western blot of MIEN1 signaling pathway proteins; type: cell-based; details: mean values of immunoblot densitometry
Procedure: Cells were exposed to the peptides and subjected to Western blot analysis with the indicated antibodies. […] Cytoplasmic and nuclear cell lysate extracts of EGF only and EGF plus peptide-treated cells were probed for p65 and p50. Lamin A/C and β-actin were used as nuclear and cytoplasmic loading control respectively. Densitometry was determined with immunoblots (N = 3) and normalized to total protein or β-actin for whole cell lysates and cytoplasmic fraction of peptide-treated MDA-MB-231 cells. In case of nuclear lysates, the immunoblots were normalized with Lamin A/C. Bar graphs are densitometric data (means ± SD). […] EGF concentration: (10 ng/ml); Peptide concentration: 90 μM. EGF, epidermal growth factor; MIEN1, migration and invasion enhancer 1; NF-κB, nuclear factor kappa B.
Western blot analysis was performed according to standard protocols to assess the effects of MIEN1-derived peptides and their analogs on MDA-MB-231 cells and DU-145 cells. Cell lysates were prepared using radioimmunoprecipitation assay buffer and quantified for protein content by bicinchoninic acid method. […] Protein blocking with 5% bovine serum albumin was followed by incubation with primary antibodies specific to various proteins at 4 °C for 8 to 10 h. The membrane was then washed three times in Tris Buffered Saline with Tween 20 and incubated with the appropriate secondary antibody. Protein bands were visualized using the Alpha Innotech chemiluminescent detection system. In case of MDA-MB-231 cells, cytoplasmic and nuclear extracts were isolated to investigate the effects of peptides and/or EGF stimulation. Prior to exposure to the cells, the test peptides (90 μM) were incubated with EGF (10 ng/ml) in media at 4 °C for 15 min. The untreated MDA-MB-231 cells received EGF alone at the same concentration. The isolation of cytoplasmic and nuclear fractions was performed using the Subcellular Protein Fractionation Kit for Cultured Cells from Thermo Fisher Scientific (cat #78840) following the manufacturer's guidelines. For Western blot experiments, 20 μg of purified cytoplasmic and nuclear fraction was used.
Densitometry analysis of Western blot data was conducted using the AlphaView-FluorChem HD2 software of the Alpha Innotech chemiluminescent detection system (https://www.cambridgescientific.com/product/alpha-innotech-fluorchem-hd2-gel-imaging-system). To quantify band intensities, a uniform rectangle was drawn around each band, and background subtraction was applied to determine the total pixel density for each lane. Further calculations, including the determination of the ratio of phosphorylated proteins to total proteins or other loading controls, were carried out using Microsoft Excel. […]

[4] = mouse, in vivo, iv, 5 mg/kg
in vivo = details: female, CD1, mouse, iv, 5 mg/kg
MDA-MB-231 cells [5] = assay: Wound healing assay; type: cell-based; details: for inhibition of migration: equimolar peptide concentrations, compared to untreated cells
Procedure: (§1) The wound healing assay was performed using two breast cancer cell lines, MDA-MB-231 and MCF-7, and two prostate cancer cell lines, PC-3 and DU-145, to evaluate the antimigratory capacity of the peptides. […] The cells were grown to approximately 80% confluency in 12-well tissue culture plates, and a cell-free area was created by scraping the monolayer. The peptides were added, and the cells were incubated at 37 °C with 5% CO2 for 24 h. Wound closure was assessed by imaging the wounds at 0 and 24 h, and the wound areas were quantified using ImageJ software (https://imagej.net/ij/). In the transwell invasion assay, MDA-MB-231 cells were serum starved for 4 h followed by a pretreatment with increasing concentrations of each peptide in a 0.1% serum-containing DMEM for 24 h. The cells were then trypsinized, resuspended in same media for the second treatment of peptides, and counted. Next, 40,000 cells were resuspended in 0.1% serum containing DMEM and added to the upper chamber of Transwell plates (Corning Life Sciences) with a polyethylene terephthalate membrane (6.4 mm diameter, 8 μm pore size). The bottom chambers were filled with DMEM containing 10% FBS as a chemoattractant. The transwell plates were incubated at 37 °C with 5% CO2 for 24 h to allow the invasion of cells through the membrane. The invaded cells on the lower side of the membrane were fixed with 4% paraformaldehyde for 15 min, followed by a PBS wash. The membrane inserts were further fixed with ice-cold methanol for 20 min and stained with 0.25% (w/v) crystal violet. After incubation, the noninvasive cells on the upper surface of the membrane were gently removed using a cotton swab. Random fields were chosen for imaging, and the number of invaded cells was counted using ImageJ software. The results were expressed as the average number of invaded cells compared with the control.

[6] = Pharmacokinetic studies in CD1 mice; details: mouse, in vivo, iv, 5 mg/kg
NIH-3T3 = type: cell-based, murine; details: MTT, 48 hours; normal cells
Procedure: (§2) MDA-MB-231, MCF-7, DU-145, PC-3, and NIH-3T3 cell lines were procured from the American Type Culture Collection and used within ten consecutive passages to ensure consistent cell behavior. MDA-MB-231, MCF-7, and NIH-3T3 cells were maintained at 37 °C and 5% CO2 in Dulbecco's modified Eagle's medium (DMEM) high glucose (Hyclone) supplemented with 10% fetal bovine serum (FBS) and 1% Antibiotic-Antimycotic (Gibco), while DU-145 and PC-3 cells were grown in RPMI-1640 supplemented with the same concentration of FBS and Antibiotic-Antimycotic. The media was replenished every 2 days. Cells were checked for mycoplasma at regular intervals using a PCR-based Mycoplasma detection kit plasmocin prophylactic (InvivoGen). In all experiments, cells were maintained in serum-free DMEM for 6 h before peptide treatment. Peptide treatment was done in the media containing 0.1% fetal bovine serum for 48 h in all the experiments unless otherwise stated.
(§3) Cell viability was determined by 3-[4,5-dimethylthiazol-2-yl]-2,5 diphenyl tetrazolium bromide (MTT) assay as described earlier ([52]). ProTox-II "Prediction of Toxicity of Chemicals" web server was used for toxicology assessment ([19]). See the Supporting Information for full experimental details.
(§4) Full Experimental Method for Cell Viability Assay:
(§5) Cell viability of murine NIH- 3T3 cells, as well as MDA- MB -231 , MC F-7, PC- 3, and DU-145 cells, wa s assessed through the MT T assay as described previously(1). Approximately
(§6) 5000 cells per well were seeded in a 96-well plate and allowed to incubate overnight for attachment. Following attachment, the growth medium was replaced wit h a fresh medium
(§7) containing serial dilutions of peptides. The cells we re then incubated for 48 hours in a 5% CO2 incubator . After incubation, 10 μl of a 5 mg/mL MT T solution was introduced to each
(§8) well and left to incubate for an additional 2 hours . Subsequently, the entire medium, along wit h the MT T solution, was aspirated, and the remaining formazan crystals were dissolved
(§9) in 200 μl of DMSO. The absorbance was measured at 595 nm using a Biotek Synergy 2 Plate Reader. […]
(§10) ProTox-II "Prediction of Toxicity of Chemicals" we b server was used for toxicology assessment. […]

DU-145 cells [7] = assay: Quantitative real-time PCR of EMT-related genes; type: cell-based; details: 48 h, 90 μM; for inhibition of the majority of the genes examined in the PCR analysis: except for SNAIL
Procedure: 18S RNA transcript levels were used for internal control. […] E-cadherin and SNAIL are increased and decreased, respectively, when probed with antibodies specific for these proteins as compared to the untreated. […] Densitometry was determined and normalized to total protein or β-actin. Peptide concentration: 90 μM. All the assays were performed in triplicates and the results are expressed as means ± SD. […] EMT, epithelial-mesenchymal transition; MMP-9, matrix metalloproteinase 9; NF-κB, nuclear factor kappa B.
Total RNA was extracted using the TRIzol reagent (Invitrogen). One microgram of total RNA was used for complementary DNA reverse transcription using the Superscript-III First Strand Synthesis kit (Invitrogen) following the manufacturer's protocol. All real-time PCR reactions were performed in duplicates in a 20 μl volume using SYBR Green Master Mix (Invitrogen) in a Realplex2 Mastercycler ep gradient S thermal cycler (Eppendorf). The PCR program followed for all the primers was an activation at 95 °C for 15 min, followed by 40 cycles of 95 °C for 30 s, 54 °C for 1 min, and 72 °C for 45 s. The reaction was finally put to hold at 4 °C. Subsequently, 18S was used as the reference gene for the mRNA levels. Relative change in gene expression was calculated according to the ΔΔCt method ([53], [54]).

MDA-MB-231 = type: cell-based; details: MTT, 48 hours
Procedure: as §2, §3, §4, §5, §6, §7, §8, §9, §10

PC-3 = type: cell-based; details: MTT, 48 hours
Procedure: as §2, §3, §4, §5, §6, §7, §8, §9, §10

DU-145 = type: cell-based; details: MTT, 48 hours
Procedure: as §2, §3, §4, §5, §6, §7, §8, §9, §10

MCF-7 = type: cell-based; details: MTT, 48 hours
Procedure: as §2, §3, §4, §5, §6, §7, §8, §9, §10

DU-145 cells [8] = assay: Wound healing assay; type: cell-based; details: scrambled peptides compared to LA3IK and RP-7 at equivalent concentrations
Procedure: as §1

MCF-7 cells = assay: Wound healing assay; type: cell-based; details: scrambled peptides compared to LA3IK and RP-7 at equivalent concentrations
Procedure: as §1

PC-3 cells = assay: Wound healing assay; type: cell-based; details: scrambled peptides compared to LA3IK and RP-7 at equivalent concentrations
Procedure: as §1

| Compound | IC50 (NIH-3T3) | inhibition of the majority of the genes examined in the PCR analysis (DU-145 cells [7]) | IC50 (MDA-MB-231) | IC50 (PC-3) | IC50 (DU-145) | IC50 (MCF-7) | antimigratory activity in wound healing assay (DU-145 cells [8]) | antimigratory activity in wound healing assay (MCF-7 cells) | antimigratory activity in wound healing assay (PC-3 cells) | inhibition of migration (MDA-MB-231 cells [5]) | further results |
| --- | --- | --- | --- | --- | --- | --- | --- | --- | --- | --- | --- |
| CC[C@@H](C)[C@@H](NC(=O)[C@@H](C)NC(=O)[C@@H](CC(C)C)NC(C)=O)C(=O)N[C@H](C)C(=O)N[C@@H](C(=O)N[C@H](CCCCN)C(N)=O)C(C)C [D-LA3IK] | – | – | – | – | – | – | – | – | – | – | remaining at 24 h, 2 μM (in vitro [1]; CD1, mouse): 75%; half-life (in vitro [1]; mouse): > 24 h; remaining at 2 h, 2 μM (in vitro [2]; male, Institute of Cancer Research/CD-1, mouse, pH 7.5): 100%; half-life (in vitro [2]; mouse): > 2 h; greater inhibition of FAK phosphorylation than L-peptide counterpart (MDA-MB-231 cells [3]): 34.2%; greater inhibition of SRC phosphorylation than L-peptide counterpart (MDA-MB-231 cells [3]): 48.8%; AUC(0-t) [4]: 3400 ng·h/mL; Cmax [4]: 3570 ng/mL; clearance [4]: 24.5 mL/min/kg; half-life [4]: 3.58 h; MRT (in vivo): 1.03 h; Tmax (in vivo): 4.8 min; Vd (in vivo): 7.58 L/kg; decrease in cell migration compared to L counterpart (MDA-MB-231 cells [5]; identical concentrations of D- and L-isomer): 30.2%; Vd [6]: 1.57 L/kg |
| Ac-LAKAVI-NH2 [LA3IK-SCR] | > 600 µM | statistically nonsignificant inhibition | 243 ± 8.16 µM | 319 ± 13.6 µM | 352 ± 7.18 µM | 133 ± 9.52 µM | reduced antimigratory activity | reduced antimigratory activity | reduced antimigratory activity | nonsignificant inhibition | gene expression in Zeb-1 and SNAIL (DU-145 cells [7]): statistically diminished |
| Ac-RPPLVIC-NH2 [RP-7 SCR] | > 600 µM | statistically nonsignificant inhibition | 156 ± 8.15 µM | 128 ± 11.7 µM | 137 ± 5.98 µM | 150 ± 10.3 µM | reduced antimigratory activity | reduced antimigratory activity | reduced antimigratory activity | nonsignificant inhibition | expression of SLUG and Zeb-1 (DU-145 cells [7]): reduced expression |
